Patent US8415469B2, “Compounds and methods for kinase modulation, and indications therefor” (Plexxikon Inc., priority 2005, dated 2013)
Values belong to the compound of their own block, whether it stands above or below them.

Tests used:
Assay type in all cases: biochemical
[1] = biological target: MAP4K4 (Homo sapiens, UniProt O95819); assay: AlphaScreen kinase assay, MAP4K4; settings: read-out: IC50, activity toward kinase MAP4K4
[2] = biological target: T1, c-Raf-1 (Homo sapiens, UniProt P04049); assay: AlphaScreen kinase assay, c-Raf-1; settings: read-out: IC50, activity toward kinase c-Raf-1
T1 construct: purchased Upstate Biotechnology

[3] = biological target: T2, B-Raf V600E (Homo sapiens, UniProt P15056, V600E); assay: AlphaScreen kinase assay, B-Raf V600E; settings: read-out: IC50, activity toward kinase B-Raf V600E
T2 construct: P4254. pFastBacBD-CDC37 BRAF D437-K722-X, V600E; His6 with pFastBac HT leader (TEV site) (N); made in house; host or cells: Sf9 (baculovirus; chaperone CDC37 co-expressed)

[4] = biological target: T3, Fms (Homo sapiens, UniProt P07333); assay: AlphaScreen kinase assay, Fms; settings: read-out: IC50, activity toward kinase Fms
T3 construct: purchased Upstate Biotechnology

[5] = biological target: T4, Kit (Homo sapiens, UniProt P10721); assay: AlphaScreen kinase assay, Kit; settings: read-out: IC50, activity toward kinase Kit
T4 construct: P1332.N6 BI PTP KIT M552-K948-X COD; His6 (N); made in house; host or cells: E. coli (PTP1B co-expressed)

[6] = biological target: T5, FGFR1 (Homo sapiens, UniProt P11362, C488A/C584S); assay: AlphaScreen kinase assay, FGFR1; settings: read-out: IC50, activity toward kinase FGFR
T5 construct: P1351.pET N6 BI-PTP FGFR A458-E765-X C488A, C584S; made in house; host or cells: E. coli (PTP1B co-expressed)

[7] = biological target: T6, Flt1 (Homo sapiens, UniProt P17948); assay: AlphaScreen kinase assay, Flt1; settings: read-out: IC50, activity toward kinase Flt1
T6 construct: P1826.pETN6 BI-PTP FLT1 M799-D1165-X WT; His6 (N); made in house; host or cells: E. coli (PTP1B co-expressed)
T6 sequence (P17948 with tags, fused parts or gaps): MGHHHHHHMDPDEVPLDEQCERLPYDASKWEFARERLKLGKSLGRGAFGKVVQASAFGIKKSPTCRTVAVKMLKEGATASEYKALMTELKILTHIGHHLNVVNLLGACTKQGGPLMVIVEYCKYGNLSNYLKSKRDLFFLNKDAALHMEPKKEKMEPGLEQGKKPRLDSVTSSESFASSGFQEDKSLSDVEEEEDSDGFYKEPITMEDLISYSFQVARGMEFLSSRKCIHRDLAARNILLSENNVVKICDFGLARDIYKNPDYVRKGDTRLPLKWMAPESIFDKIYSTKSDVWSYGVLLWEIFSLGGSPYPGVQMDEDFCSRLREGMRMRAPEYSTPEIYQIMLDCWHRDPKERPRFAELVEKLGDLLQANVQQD

[8] = biological target: T7, Ret (Homo sapiens, UniProt P07949); assay: AlphaScreen kinase assay, Ret; settings: read-out: IC50, activity toward kinase Ret
T7 construct: P1378.pET-SF BI-PTP RET H661-R1012 HIS; made in house
T7 sequence (P07949 with tags, fused parts or gaps): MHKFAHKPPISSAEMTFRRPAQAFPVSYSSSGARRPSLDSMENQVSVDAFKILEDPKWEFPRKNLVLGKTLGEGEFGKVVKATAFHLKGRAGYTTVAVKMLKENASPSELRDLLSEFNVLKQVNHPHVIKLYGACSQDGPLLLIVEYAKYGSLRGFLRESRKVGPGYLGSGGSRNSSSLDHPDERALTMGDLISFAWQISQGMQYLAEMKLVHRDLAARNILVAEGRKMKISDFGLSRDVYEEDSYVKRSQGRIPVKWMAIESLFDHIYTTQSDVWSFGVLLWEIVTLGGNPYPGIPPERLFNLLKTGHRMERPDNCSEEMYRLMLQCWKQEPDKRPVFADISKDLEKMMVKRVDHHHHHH

[9] = biological target: T8, B-Raf (Homo sapiens, UniProt P15056); assay: AlphaScreen kinase assay, B-Raf; settings: read-out: IC50, activity toward kinase B-Raf
T8 construct: purchased Upstate Biotechnology

[10] = biological target: T9, Fak (Homo sapiens, UniProt Q05397); assay: AlphaScreen kinase assay, Fak; settings: read-out: IC50, activity toward kinase Fak
T9 construct: P1358.pFastBacHtb FAK S411-Q686-X; His6 with pFastBacHTb leader (TEV site) (N); made in house; host or cells: Sf9 (baculovirus)

[11] = biological target: T10, Yes (Homo sapiens, UniProt P07947); assay: Z'-Lyte FRET kinase assay (Invitrogen), Yes; settings: read-out: IC50, activity toward kinase Yes
T10 construct: purchased Invitrogen (Carlsbad, Calif.), screening service
Source text: The effect of potential modulators of kinase activity can be measured in a variety of different assays known in the art. For example, direct radiometric, indirect FRET or AlphaScreen assays may be used to assess the level of phosphorylation of a substrate in the presence of test compounds in order to determine the inhibitory affect of the compound on the kinase. Invitrogen (Carlsbad, Calif.) uses a FRET based assay for Btk, EGFR, EphB2, Flt3, lrak4, Kdr, MAP2K1, MAPKAPK2, PDGFRB, PKC theta, Stk6 and Yes. For these assays, compounds of the invention were screened by Invitrogen using Z′-Lyte™ kinase assay.
Briefly, the Invitrogen kinase assay involves use of a specific peptide substrate optimized for each kinase, containing a fluorophore at each end that make up the FRET pair. The peptide sensitivity to proteolytic cleavage depends on phosphorylation of the peptide. Non-phosphorylated peptide is cleaved by a protease while peptide phosphorylated by the kinase is not cleaved. Cleavage of the peptide disrupts the FRET between the donor (coumarin) and acceptor (fluorescein) fluorophores, resulting in an increase in the ratio of donor emission to acceptor emission. The emission ratio of coumarin to fluorescein is used to assess the reaction progress. The extent of phosphorylation is determined from the emission ratio, which is low when the kinase is active (phosphorylated peptide is not cleaved, FRET pair connected) or higher for inhibited kinase (non-phosphorylated peptide is cleaved, FRET pair separated). Thus, the assay involves a kinase reaction in the presence of varying concentrations of a given compound, a development reaction with site specific protease, and detection of the fluorescent emission ratio of coumarin and fluorscein. […] Reaction conditions for each kinase are determined to provide optimal reaction times, incubation temperature, kinase and ATP concentrations. Test samples are made up in 1× kinase buffer (50 mM HEPES pH 7.5, 50 mM MgCl2, 5 mM EGTA, 0.05% BRIJ-35) and compound at desired concentration prepared in DMSO such that the final DMSO is 1%. […] Typically, assay plates are prepared to 10 μl final volume per sample, adding 2.5 μl of compound at 4× the desired concentration in 4% DMSO (serial dilution of compound provides concentration curve), 5 μl of the desired kinase mixed with Z′-LYTE™ peptide substrate (2× in 2× kinase buffer, final peptide at 2 μM), and 2.5 μl of 4×ATP solution. All kinase except for MAP2K1 were at 10 μM ATP in the kinase reaction, while MAP2K1 was at 100 μM. Samples are mixed and the kinase reaction is incubated 1 hour at room temperature, after which 5 μl of development solution is added and mixed. After incubation for another 1 hour at room temperature, 5 μl of stop reagent is added to each sample and mixed. The fluorescence signals are measured to determine the emission ratio.

[12] = biological target: T11, Zap70 (Homo sapiens, UniProt P43403); assay: AlphaScreen kinase assay, Zap70; settings: read-out: IC50, activity toward kinase Zap70
T11 construct: P1868.pFastBac1 ZAP70 D327-G606 HIS, WT; His7 (HHHHHHH) (C); made in house
T11 sequence (P43403 with tags, fused parts or gaps): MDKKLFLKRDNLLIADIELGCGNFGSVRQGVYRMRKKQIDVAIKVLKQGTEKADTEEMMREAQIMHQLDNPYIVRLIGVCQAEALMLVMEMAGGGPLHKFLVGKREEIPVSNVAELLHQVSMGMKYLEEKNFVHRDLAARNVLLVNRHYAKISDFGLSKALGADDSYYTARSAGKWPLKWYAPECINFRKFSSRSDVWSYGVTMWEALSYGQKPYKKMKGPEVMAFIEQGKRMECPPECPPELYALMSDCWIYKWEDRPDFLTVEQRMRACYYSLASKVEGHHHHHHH
Source text: AlphaScreen assay was used to screen additional kinases. The assay is similarly dependent on the phosphorylation of a peptide substrate. In this assay, an antibody that recognizes phosphorylated substrate is bound to an acceptor bead. The peptide substrate is attached to biotin, which binds to a donor head that contains streptavidin. Thus phosphorylated substrate is bound by antibody and streptavidin, bringing the donor and acceptor heads into close proximity when kinase is not inhibited. The donor produces singlet oxygen which results in emission from the acceptor when they are in close proximity. Conversely, when kinase is inhibited, the donor and acceptor beads are not associated and the emission from the acceptor is reduced.
AlphaScreen assays were done using compounds dissolved in DMSO to a concentration of 20 mM. The compounds were diluted accordingly to the desired final concentrations in each sample well, using 1:3 serial dilution for a total of 8 concentration points.

T3 sequence (P07333 20-972): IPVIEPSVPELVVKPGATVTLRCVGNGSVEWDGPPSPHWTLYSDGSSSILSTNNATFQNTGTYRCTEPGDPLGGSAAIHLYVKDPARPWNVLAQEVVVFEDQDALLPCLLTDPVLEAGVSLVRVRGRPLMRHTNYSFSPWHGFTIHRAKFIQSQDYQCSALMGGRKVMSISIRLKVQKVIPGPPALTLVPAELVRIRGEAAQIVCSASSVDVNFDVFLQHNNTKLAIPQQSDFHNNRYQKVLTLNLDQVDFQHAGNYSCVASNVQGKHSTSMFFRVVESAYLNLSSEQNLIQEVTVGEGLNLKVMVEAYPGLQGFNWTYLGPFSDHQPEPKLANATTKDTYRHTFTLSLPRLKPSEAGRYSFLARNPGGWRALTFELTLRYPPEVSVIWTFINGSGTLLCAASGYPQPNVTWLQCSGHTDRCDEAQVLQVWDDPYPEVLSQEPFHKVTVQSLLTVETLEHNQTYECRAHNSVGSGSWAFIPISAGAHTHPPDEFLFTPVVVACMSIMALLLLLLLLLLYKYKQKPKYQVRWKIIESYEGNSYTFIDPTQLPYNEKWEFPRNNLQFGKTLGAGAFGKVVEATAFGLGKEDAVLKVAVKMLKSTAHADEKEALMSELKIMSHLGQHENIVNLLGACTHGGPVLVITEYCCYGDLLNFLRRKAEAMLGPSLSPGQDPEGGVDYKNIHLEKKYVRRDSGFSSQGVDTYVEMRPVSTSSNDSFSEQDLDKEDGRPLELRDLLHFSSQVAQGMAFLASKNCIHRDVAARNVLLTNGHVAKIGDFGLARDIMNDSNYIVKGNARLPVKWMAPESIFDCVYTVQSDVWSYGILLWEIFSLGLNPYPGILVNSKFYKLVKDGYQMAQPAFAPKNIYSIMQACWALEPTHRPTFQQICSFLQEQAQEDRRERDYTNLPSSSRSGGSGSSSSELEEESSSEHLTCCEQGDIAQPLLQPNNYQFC
T4 sequence (P10721 with tags, fused parts or gaps): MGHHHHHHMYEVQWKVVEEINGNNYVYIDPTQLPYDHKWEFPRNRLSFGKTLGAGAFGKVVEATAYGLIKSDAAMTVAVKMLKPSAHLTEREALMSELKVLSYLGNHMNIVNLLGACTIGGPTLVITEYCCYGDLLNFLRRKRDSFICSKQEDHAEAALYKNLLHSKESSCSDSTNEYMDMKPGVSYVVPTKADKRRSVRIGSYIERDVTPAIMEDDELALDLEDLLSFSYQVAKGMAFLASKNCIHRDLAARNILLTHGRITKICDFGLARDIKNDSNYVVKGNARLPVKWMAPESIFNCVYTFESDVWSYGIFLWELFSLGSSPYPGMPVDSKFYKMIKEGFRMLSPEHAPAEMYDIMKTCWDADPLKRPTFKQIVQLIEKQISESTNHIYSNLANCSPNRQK
T2 sequence (P15056 with tags, fused parts or gaps V600E): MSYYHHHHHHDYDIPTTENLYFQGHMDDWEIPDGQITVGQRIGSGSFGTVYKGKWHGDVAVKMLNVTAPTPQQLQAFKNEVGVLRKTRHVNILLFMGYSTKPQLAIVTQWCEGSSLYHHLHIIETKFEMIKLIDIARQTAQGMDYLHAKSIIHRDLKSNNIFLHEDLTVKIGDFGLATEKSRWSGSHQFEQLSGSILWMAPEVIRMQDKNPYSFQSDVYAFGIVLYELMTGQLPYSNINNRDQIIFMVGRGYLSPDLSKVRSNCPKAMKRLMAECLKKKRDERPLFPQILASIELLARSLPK
Chain of MAP4K4 (O95819 whole entry): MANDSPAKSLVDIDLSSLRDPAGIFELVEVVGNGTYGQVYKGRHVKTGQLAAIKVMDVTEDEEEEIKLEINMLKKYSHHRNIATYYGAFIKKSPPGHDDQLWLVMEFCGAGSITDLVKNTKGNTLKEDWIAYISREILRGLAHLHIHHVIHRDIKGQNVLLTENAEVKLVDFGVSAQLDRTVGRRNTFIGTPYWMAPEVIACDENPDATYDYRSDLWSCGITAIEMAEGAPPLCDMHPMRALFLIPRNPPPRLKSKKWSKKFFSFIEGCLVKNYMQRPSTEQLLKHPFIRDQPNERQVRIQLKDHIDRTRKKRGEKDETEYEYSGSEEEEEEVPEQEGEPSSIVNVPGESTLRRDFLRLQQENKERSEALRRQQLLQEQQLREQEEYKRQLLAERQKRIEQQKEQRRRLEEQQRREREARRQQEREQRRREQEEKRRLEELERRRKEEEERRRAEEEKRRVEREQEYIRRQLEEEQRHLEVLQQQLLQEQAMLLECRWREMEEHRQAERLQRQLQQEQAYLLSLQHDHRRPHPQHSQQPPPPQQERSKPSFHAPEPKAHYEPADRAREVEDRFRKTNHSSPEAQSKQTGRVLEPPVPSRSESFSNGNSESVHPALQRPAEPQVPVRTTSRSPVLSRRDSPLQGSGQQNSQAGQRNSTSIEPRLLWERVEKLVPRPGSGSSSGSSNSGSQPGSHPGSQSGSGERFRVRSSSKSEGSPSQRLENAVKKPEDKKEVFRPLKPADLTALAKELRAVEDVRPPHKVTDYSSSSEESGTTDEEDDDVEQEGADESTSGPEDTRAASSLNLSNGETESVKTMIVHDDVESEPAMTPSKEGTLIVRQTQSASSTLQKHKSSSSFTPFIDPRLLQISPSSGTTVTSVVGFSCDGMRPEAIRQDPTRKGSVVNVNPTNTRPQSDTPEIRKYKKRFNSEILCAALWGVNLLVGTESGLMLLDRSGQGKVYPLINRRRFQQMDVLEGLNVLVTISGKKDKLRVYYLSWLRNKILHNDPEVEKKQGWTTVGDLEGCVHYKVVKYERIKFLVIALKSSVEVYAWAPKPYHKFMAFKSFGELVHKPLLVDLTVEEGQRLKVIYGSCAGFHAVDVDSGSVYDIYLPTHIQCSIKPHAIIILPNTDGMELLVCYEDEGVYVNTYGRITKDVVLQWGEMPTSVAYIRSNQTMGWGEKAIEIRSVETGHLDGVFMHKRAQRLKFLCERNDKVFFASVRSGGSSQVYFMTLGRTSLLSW
T5 sequence (P11362 458-765 C488A/C584S): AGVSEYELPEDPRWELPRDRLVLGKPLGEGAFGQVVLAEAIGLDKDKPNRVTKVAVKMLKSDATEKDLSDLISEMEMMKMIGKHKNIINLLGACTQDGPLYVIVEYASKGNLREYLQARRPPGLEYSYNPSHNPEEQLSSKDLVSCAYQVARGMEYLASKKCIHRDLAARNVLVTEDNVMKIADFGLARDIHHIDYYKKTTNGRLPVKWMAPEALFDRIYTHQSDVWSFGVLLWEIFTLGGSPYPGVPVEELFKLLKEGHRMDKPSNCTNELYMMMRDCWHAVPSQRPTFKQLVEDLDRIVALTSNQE
T8 sequence (P15056 whole entry): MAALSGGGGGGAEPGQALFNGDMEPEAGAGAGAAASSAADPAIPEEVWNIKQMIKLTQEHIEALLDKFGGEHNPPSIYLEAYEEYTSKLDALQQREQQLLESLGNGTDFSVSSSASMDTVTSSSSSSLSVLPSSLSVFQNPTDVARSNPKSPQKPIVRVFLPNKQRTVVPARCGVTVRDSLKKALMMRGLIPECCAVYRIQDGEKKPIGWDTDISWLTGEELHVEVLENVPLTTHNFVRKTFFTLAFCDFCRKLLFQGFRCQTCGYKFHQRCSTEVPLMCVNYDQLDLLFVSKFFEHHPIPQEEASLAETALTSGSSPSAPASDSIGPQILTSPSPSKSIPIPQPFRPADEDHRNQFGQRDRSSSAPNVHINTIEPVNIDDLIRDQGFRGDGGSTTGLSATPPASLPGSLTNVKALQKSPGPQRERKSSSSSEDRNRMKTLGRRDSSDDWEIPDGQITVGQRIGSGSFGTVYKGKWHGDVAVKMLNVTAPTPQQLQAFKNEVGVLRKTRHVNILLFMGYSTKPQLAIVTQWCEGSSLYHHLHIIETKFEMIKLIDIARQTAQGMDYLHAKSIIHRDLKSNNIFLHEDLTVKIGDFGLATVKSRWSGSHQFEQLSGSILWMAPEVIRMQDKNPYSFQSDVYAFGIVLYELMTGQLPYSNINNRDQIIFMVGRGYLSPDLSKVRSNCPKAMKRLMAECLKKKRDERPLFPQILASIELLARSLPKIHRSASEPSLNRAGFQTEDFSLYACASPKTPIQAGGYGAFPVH
T1 sequence (P04049 whole entry): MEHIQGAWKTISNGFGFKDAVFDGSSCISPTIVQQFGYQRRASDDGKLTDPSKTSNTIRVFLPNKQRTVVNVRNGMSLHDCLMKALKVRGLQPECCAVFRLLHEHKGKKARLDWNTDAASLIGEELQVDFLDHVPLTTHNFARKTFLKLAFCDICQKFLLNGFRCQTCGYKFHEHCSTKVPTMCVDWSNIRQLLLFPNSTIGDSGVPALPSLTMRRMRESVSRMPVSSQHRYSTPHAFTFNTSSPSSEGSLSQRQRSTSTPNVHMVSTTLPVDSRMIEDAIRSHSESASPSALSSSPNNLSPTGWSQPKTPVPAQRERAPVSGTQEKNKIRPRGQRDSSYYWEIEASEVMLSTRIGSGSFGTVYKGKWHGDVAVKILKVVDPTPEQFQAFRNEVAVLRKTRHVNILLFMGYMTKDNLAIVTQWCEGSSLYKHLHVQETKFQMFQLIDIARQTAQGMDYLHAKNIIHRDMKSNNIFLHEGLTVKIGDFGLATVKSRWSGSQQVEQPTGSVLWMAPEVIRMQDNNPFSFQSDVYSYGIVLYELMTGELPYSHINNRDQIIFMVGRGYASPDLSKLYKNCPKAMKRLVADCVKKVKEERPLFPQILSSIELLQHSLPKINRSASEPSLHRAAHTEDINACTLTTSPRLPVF
T9 sequence (Q05397 411-686): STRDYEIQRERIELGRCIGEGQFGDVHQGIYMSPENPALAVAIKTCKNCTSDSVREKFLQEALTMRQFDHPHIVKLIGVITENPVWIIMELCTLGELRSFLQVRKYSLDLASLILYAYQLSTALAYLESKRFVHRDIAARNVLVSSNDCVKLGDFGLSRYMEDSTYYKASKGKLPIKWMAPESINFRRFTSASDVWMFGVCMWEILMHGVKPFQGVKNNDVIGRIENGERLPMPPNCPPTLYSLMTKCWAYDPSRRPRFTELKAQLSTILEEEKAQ

SMILES: COc1ccc(-c2c(C)[nH]c3ncccc23)cc1OC [Compound P-0862]
IC50 [1]: ≤ 10 µM

SMILES: O=C(c1ccccc1)c1c[nH]c2ncccc12 [Compound P-0402]
IC50 [5]: ≤ 10 µM | IC50 [1]: ≤ 10 µM

SMILES: Cc1cc(C(=O)c2c[nH]c3ncccc23)n(C)n1 [Compound P-0357]
IC50 [1]: ≤ 10 µM

SMILES: O=C(c1cccc(F)c1)c1c[nH]c2ncccc12 [Compound P-0367]
IC50 [8]: ≤ 10 µM | IC50 [5]: ≤ 10 µM | IC50 [1]: ≤ 10 µM

SMILES: CS(=O)(=O)Nc1cccc(-c2cnc3[nH]cc(C(=O)c4cc(Cl)cc(Cl)c4)c3c2)c1 [Compound P-1429, N-{3-[3-(3,5-Dichloro-benzoyl)-1H-pyrrolo[2,3-b]pyridin-5-yl]-phenyl}-methanesulfonamide]
IC50 [4]: ≤ 10 µM | IC50 [5]: ≤ 10 µM | IC50 [3]: ≤ 10 µM | IC50 [1]: ≤ 10 µM | IC50 [9]: ≤ 10 µM | IC50 [6]: ≤ 10 µM | IC50 [7]: ≤ 10 µM

SMILES: c1ccc(Cc2c[nH]c3ncccc23)cc1 [Compound P-0256]
IC50 [1]: ≤ 10 µM

SMILES: c1ccc(Oc2ccc(Cc3c[nH]c4ncccc34)cc2)cc1 [Compound P-0310]
IC50 [10]: ≤ 10 µM | IC50 [11]: ≤ 10 µM | IC50 [12]: ≤ 10 µM | IC50 [9]: ≤ 10 µM

SMILES: COc1ccc(-c2c[nH]c3ncccc23)c(OC)c1 [Compound P-0477]
IC50 [1]: ≤ 10 µM | IC50 [7]: ≤ 10 µM

SMILES: Cc1[nH]c2ncccc2c1-c1ccc(-c2ccccc2)cc1 [Compound P-0601]
IC50 [1]: ≤ 10 µM

SMILES: Cc1[nH]c2ncccc2c1-c1ccncc1 [Compound P-0537]
IC50 [1]: ≤ 10 µM

SMILES: O=C(c1cccnc1)c1c[nH]c2ncccc12 [Compound P-0518]
IC50 [1]: ≤ 10 µM

SMILES: c1cnc2ccc(Nc3ccnc4[nH]ccc34)cc2c1 [Compound P-1042]
IC50 [1]: ≤ 10 µM

SMILES: O=C(O)c1ccc(F)c(C(=O)c2c[nH]c3ncc(-c4cccnc4)cc23)c1F [Compound P-1017]
IC50 [2]: ≤ 10 µM | IC50 [1]: ≤ 10 µM | IC50 [6]: ≤ 10 µM

Continued, values first:

IC50 [1]: ≤ 10 µM
SMILES: Clc1cccc(-c2c[nH]c3ncccc23)c1 [Compound P-0449]

IC50 [1]: ≤ 10 µM
SMILES: Cc1[nH]c2ncccc2c1-c1ccccc1 [Compound P-0488]

IC50 [1]: ≤ 10 µM
SMILES: NC(=O)c1ccc(-c2c(CN3CCOCC3)[nH]c3ncccc23)cc1 [Compound P-0695]

IC50 [2]: ≤ 10 µM | IC50 [3]: ≤ 10 µM | IC50 [1]: ≤ 10 µM
SMILES: COc1cccc(S(=O)(=O)Nc2ccc(F)c(C(=O)c3c[nH]c4ncccc34)c2F)c1 [Compound P-0971, N-[2,4-difluoro-3-(1H-pyrrolo[2,3-b]pyridine-3-carbonyl)phenyl]-3-methoxy-benzenesulfonamide]

IC50 [4]: ≤ 10 µM | IC50 [5]: ≤ 10 µM | IC50 [3]: ≤ 10 µM | IC50 [1]: ≤ 10 µM | IC50 [6]: ≤ 10 µM | IC50 [7]: ≤ 10 µM
SMILES: O=C(c1cccc(OC(F)F)c1)c1c[nH]c2ncc(-c3cccnc3)cc12 [Compound P-1415, (3-Difluoromethoxy-phenyl)-(5-pyridin-3-yl-1H-pyrrolo[2,3-b]pyridin-3-yl)-methanone]

IC50 [3]: ≤ 10 µM | IC50 [1]: ≤ 10 µM | IC50 [6]: ≤ 10 µM | IC50 [7]: ≤ 10 µM
SMILES: O=C(O)/C=C/c1cccc(-c2cnc3[nH]cc(C(=O)c4cccc(OC(F)F)c4)c3c2)c1 [Compound P-1418, (E)-3-{3-[3-(3-Difluoromethoxy-benzoyl)-1H-pyrrolo[2,3-b]pyridin-5-yl]-phenyl}-acrylic acid]

IC50 [1]: ≤ 10 µM | IC50 [6]: ≤ 10 µM
SMILES: Fc1ccc(Cc2c[nH]c3ncccc23)cc1 [Compound P-0220]

IC50 [5]: ≤ 10 µM | IC50 [3]: ≤ 10 µM | IC50 [1]: ≤ 10 µM
SMILES: O=C(c1cc(Cl)cc(Cl)c1)c1c[nH]c2ncc(-c3cccnc3)cc12 [Compound P-1414, (3,5-Dichloro-phenyl)-(5-pyridin-3-yl-1H-pyrrolo[2,3-b]pyridin-3-yl)-methanone]

IC50 [1]: ≤ 10 µM
SMILES: CCOc1ccccc1-c1c[nH]c2ncccc12 [Compound P-0527]

IC50 [4]: ≤ 10 µM | IC50 [5]: ≤ 10 µM | IC50 [1]: ≤ 10 µM | IC50 [6]: ≤ 10 µM | IC50 [7]: ≤ 10 µM
SMILES: COc1cc(OC)cc(C(=O)c2c[nH]c3ncc(-c4ccccc4)cc23)c1 [Compound P-1406, (3,5-Dimethoxy-phenyl)-(5-phenyl-1H-pyrrolo[2.3 b]pyridin-3-yl)-methanone]
